Common to all, as to format: biochemical
For experiment [1], the target named is Tyk2 (Homo sapiens, UniProt P29597). Put plainly: Mobility shift assay, inhibitory activity on Tyk2 kinase. Conditions: mobility shift assay; Tyk2 2.5 nM; ATP 1 mM; 3 μM Kinase Substrate 30. The method, then:
(§1) Inhibitory Activities of the Compounds on JAK1, JAK2, JAK3 and Tyk2 (IC50)
(§2) The inhibitory activity of compounds on JAK family kinase was analyzed with Mobility shift assay. The screening platform is MSA based microfluidic chip technology, which applies the basic concept of capillary electrophoresis to microfluidic environment. The substrate used in the experiment is a poly-peptide labeled with fluorescent. Under the catalysis of kinase in the reaction system, the substrate is transformed into a product, with the charge changed accordingly. MSA technology could detect the substrate and the product with different charge separately.
(§3) A compound (powder) was dissolved in 100% DMSO to prepare a 10 mM storage solution. […] Detection in duplicate. Baricitinib (Selleckchem, Cat. S2851) was used as positive control. The serially diluted compound was mixed with JAK1/JAK2/JAK3/Tyk2 kinase (Cama, Cat. 08-144/08-045/08-046/08-147) with final concentration of 5 nM/0.125 nM/0.5 nM/2.5 nM in a Optiplate-384F plate and incubated at room temperature for 10 minutes. After that, ATP with final concentration of 1 mM and 3 μM Kinase Substrate 30 (GL Biochem, Cat. 117885) were added and mixed well. The reaction was carried out at room temperature for 20 min. Stop test solution was added to stop the reaction and the conversion rate was read by Caliper EZ Reader II.
(§4) Conversion %_sample: the conversion rate reading of the sample;
(§5) Conversion %_min: mean value of negative control, representing the conversion rate reading without kinase activity;
(§6) Coversion %_max: mean value of positive control, representing the conversion rate reading without compound inhibition.

Experiment [2] deals with Tyk2. The description is as above. Conditions: ratio of JAK2 IC50 to TyK2 IC50. Here is the method: as §1, §2, §3, §4, §5, §6
For the next experiment, the target named is JAK2 (Homo sapiens, UniProt O60674). Put plainly: Mobility shift assay, inhibitory activity on JAK2 kinase. Conditions: JAK2 0.125 nM, ATP 1 mM, 3 μM Kinase Substrate 30. Here is the method: as §1, §2, §3, §4, §5, §6

The record followed here is patent publication US12404275B2, “Pyrazolopyrazine derived compounds, pharmaceutical composition and use thereof” (PrimeGene (Beijing) Co., Ltd., priority 2019, dated 2025).

`Cn1cc(-c2cc(-c3cn([C@]4(CC#N)C[C@@H](C#N)C4)nc3N)c3ccnn3c2)cn1` [Example 42, (1r,3r)-3-(3-amino-4-(6-(1-methyl-1H-pyrazol-4-yl)pyrazolo[1,5-a]pyridin-4-yl)-1H-pyrazol-1-yl)-3-(cyanomethyl)cyclobutane-1-carbonitrile]: the IC50 (commonly the point on the concentration scale where inhibition reaches its midpoint) at Tyk2 [1] amounted to 375 nM.
Take `Cn1cc(-c2cn3nccc3c(-c3cn([C@]4(CC#N)C[C@H](C#N)C4)c4ncncc34)n2)cn1` [Example 50, (1r,3r)-3-(cyanomethyl)-3-(5-(6-(1-methyl-1H-pyrazol-4-yl)pyrazolo[1,5-a]pyrazin-4-yl)-7H-pyrrolo[2,3-d]pyrimidin-7-yl)cyclobutane-1-carbonitrile]: the IC50 on Tyk2 [1] is 0.41 nM; on JAK2 it was 10 nM. Besides, the “Selectivity of JAK2/TyK2” value with Tyk2 [2] is reported as 24.4.
As to `CC(C)S(=O)(=O)N1CC(CC#N)(n2cc(-c3nc(-c4cnn(C)c4)cn4ncc(C#N)c34)c(N)n2)C1` [Example 4, 4-(3-amino-1-(3-(cyanomethyl)-1-(isopropylsulfonyl)azetidin-3-yl)-1H-pyrazol-4-yl)-6-(1-methyl-1H-pyrazol-4-yl)pyrazolo[1,5-a]pyrazine-3-carbonitrile], at Tyk2 [1], the IC50 was found to be 1760 nM.
As to `Cn1cc(-c2cn3nccc3c(-c3cn([C@]4(CC#N)C[C@@H](C#N)C4)c4ccncc34)n2)cn1` [Example 48, (1r,3r)-3-(cyanomethyl)-3-(3-(6-(1-methyl-1H-pyrazol-4-yl)pyrazolo[1,5-a]pyrazin-4-yl)-1H-pyrrolo[3,2-c]pyridin-1-yl)cyclobutane-1-carbonitrile], the IC50 on Tyk2 [1] was 0.36 nM; on JAK2 it was 8.1 nM. Moreover, the “Selectivity of JAK2/TyK2” value in the experiment on Tyk2 [2] was found to be 22.5.
Consider `Cn1cc(-c2cn3nccc3c(-c3cn([C@]4(CC#N)C[C@H](C#N)C4)nc3N)n2)cn1` [Example 10, (1s,3s)-3-(3-amino-4-(6-(1-methyl-1H-pyrazol-4-yl)pyrazolo[1,5-a]pyrazin-4-yl)-1H-pyrazol-1-yl)-3-(cyanomethyl)cyclobutyl-1-carbonitrile], for which the figures for the IC50 on Tyk2 [1] and at JAK2 were 0.13 nM and 0.25 nM, respectively.
For the molecule `CC(C)S(=O)(=O)N1CC(CC#N)(n2cc(-c3nc(-c4cnn(C)c4)cn4nccc34)c(N)n2)C1` [Example 3, 2-(3-(3-amino-4-(6-(1-methyl-1H-pyrazol-4-yl)pyrazolo[1,5-a]pyrazin-4-yl)-1H-pyrazol-1-yl)-1-(isopropylsulfonyl)azetidin-3-yl)acetonitrile], the 50% inhibitory concentration (IC50) came out at 2.1 nM at Tyk2 [1] and 77 nM at JAK2. Besides, in the experiment with Tyk2 [2], the “Selectivity of JAK2/TyK2” value came out at 36.6.
In the case of `Cn1cc(-c2cn3nccc3c(-c3cn([C@]4(CC#N)C[C@@H](C#N)C4)nc3N)n2)cn1` [Example 9, (1r,3r)-3-(3-amino-4-(6-(1-methyl-1H-pyrazol-4-yl)pyrazolo[1,5-a]pyrazin-4-yl)-1H-pyrazol-1-yl)-3-(cyanomethyl)cyclobutyl-1-carbonitrile], the IC50 was 0.17 nM on Tyk2 [1] and 14 nM on JAK2.
In the case of `CN(C)c1nn([C@]2(CC#N)C[C@@H](C#N)C2)cc1-c1nc(-c2cnn(C)c2)cn2nccc12` [Example 39, (1r,3r)-3-(cyanomethyl)-3-(3-(dimethylamino)-4-(6-(1-methyl-1H-pyrazol-4-yl)pyrazolo[1,5-a]pyrazin-4-yl)-1H-pyrazol-1-yl)cyclobutane-1-carbonitrile], the IC50 at Tyk2 [1] is 3.7 nM; on JAK2, 200 nM. Moreover, the “Selectivity of JAK2/TyK2” value in the experiment on Tyk2 [2] worked out at 54.
`Cn1cc(-c2cn3nccc3c(-c3cn([C@]4(CC#N)C[C@H](C#N)C4)c4ncncc34)n2)cn1` [Example 49, (1s,3s)-3-(cyanomethyl)-3-(5-(6-(1-methyl-1H-pyrazol-4-yl)pyrazolo[1,5-a]pyrazin-4-yl)-7H-pyrrolo[2,3-d]pyrimidin-7-yl)cyclobutane-1-carbonitrile]: the IC50 at Tyk2 [1] came out at 118 nM.
For the molecule `Cn1cc(-c2cc(-c3cn([C@]4(CC#N)C[C@H](C#N)C4)nc3N)c3ccnn3c2)cn1` [Example 43, (is, 3s)-3-(3-amino-4-(6-(1-methyl-TH-pyrazol-4-yl)pyrazolo[1,5-a]pyridin-4-yl)-1H-pyrazol-1-yl)-3-(cyanomethyl)cyclobutane-1-carbonitrile], the IC50 at Tyk2 [1] amounted to 43 nM.
On the same count and under the same terms, under `CC(=O)Nc1nn([C@]2(CC#N)C[C@@H](C#N)C2)cc1-c1nc(-c2cnn(C)c2)cn2nccc12` [Example 40, N-(1-((1r,3r)-3-cyano-1-(cyanomethyl)cyclobutyl)-4-(6-(1-methyl-1H-pyrazol-4-yl)pyrazolo[1,5-a]pyrazin-4-yl)-1H-pyrazol-3-yl)acetamide] stands 139 nM; under `Cn1cc(-c2cn3nccc3c(-c3cn([C@]4(CC#N)C[C@H](C#N)C4)c4ccncc34)n2)cn1` [Example 47, (1s,3s)-3-(cyanomethyl)-3-(3-(6-(1-methyl-1H-pyrazol-4-yl)pyrazolo[1,5-a]pyrazin-4-yl)-1H-pyrrolo[3,2-c]pyridin-1-yl)cyclobutane-1-carbonitrile], 186 nM.
`CNc1nn([C@]2(CC#N)C[C@@H](C#N)C2)cc1-c1nc(-c2cnn(C)c2)cn2nccc12` [Example 38, (1r,3r)-3-(cyanomethyl)-3-(4-(6-(1-methyl-1H-pyrazol-4-yl)pyrazolo[1,5-a]pyrazin-4-yl)-3-(methylamino)-1H-pyrazol-1-yl)cyclobutane-1-carbonitrile]: the IC50 amounted to 0.33 nM on Tyk2 [1] and 6.7 nM at JAK2. Further, in the experiment with Tyk2 [2], the “Selectivity of JAK2/TyK2” value was 20.
Taken in the same sequence, the figures for `CCS(=O)(=O)N1CC(CC#N)(n2cc(-c3nc(-c4cnn(C)c4)cn4nccc34)c(N)n2)C1` [Example 2, 2-(3-(3-amino-4-(6-(1-methyl-TH-pyrazol-4-yl)pyrazolo[1,5-a]pyrazin-4-yl)-1H-pyrazol-1-yl)-1-(ethylsulfonyl)azetidin-3-yl)acetonitrile] were 0.38 nM, 64 nM and 168.
For the molecule `Cn1cc(-c2cn3ncnc3c(-c3cn([C@]4(CC#N)C[C@@H](C#N)C4)nc3N)n2)cn1` [Example 41, (1r,3r)-3-(3-amino-4-(6-(1-methyl-1H-pyrazol-4-yl)-[1,2,4]triazolo[1,5-a)pyrazin-8-yl)-1H-pyrazol-1-yl)-3-(cyanomethyl)cyclobutane-1-carbonitrile], the IC50 on Tyk2 [1] is 37 nM.
For the molecule `Cn1cc(-c2cn3nccc3c(-c3cn(C4(CC#N)CN(CC#N)C4)nc3N)n2)cn1` [Example 1, 2,2′-(3-(3-amino-4-(6-(1-methyl-1H-pyrazol-4-yl)pyrazolo[1,5-a]pyrazine-4-yl)-1H-pyrazol-1-yl)azetidine-1,3-diyl)diacetonitrile], the IC50 at Tyk2 [1] turned out to be 0.42 nM; at JAK2 it was 88 nM. For the same molecule, the “Selectivity of JAK2/TyK2” value in the experiment with Tyk2 [2] came to 210.
